Publication PMC12569736 (Journal of Cosmetic Dermatology, 2025)

Tests used:
[1] = molecular target: T1, human tyrosinase (hTYR) (Homo sapiens, UniProt P14679); assay: L‐DOPA oxidation assay for tyrosinase activity (MNT‐1 cell lysate); assay type: biochemical
T1 construct: tyrosinase enzyme solution derived from MNT‐1 cells; endogenous in cells; host or cells: MNT-1 human melanoma cell line (crude lysate supernatant)
T1 sequence (P14679 19-529): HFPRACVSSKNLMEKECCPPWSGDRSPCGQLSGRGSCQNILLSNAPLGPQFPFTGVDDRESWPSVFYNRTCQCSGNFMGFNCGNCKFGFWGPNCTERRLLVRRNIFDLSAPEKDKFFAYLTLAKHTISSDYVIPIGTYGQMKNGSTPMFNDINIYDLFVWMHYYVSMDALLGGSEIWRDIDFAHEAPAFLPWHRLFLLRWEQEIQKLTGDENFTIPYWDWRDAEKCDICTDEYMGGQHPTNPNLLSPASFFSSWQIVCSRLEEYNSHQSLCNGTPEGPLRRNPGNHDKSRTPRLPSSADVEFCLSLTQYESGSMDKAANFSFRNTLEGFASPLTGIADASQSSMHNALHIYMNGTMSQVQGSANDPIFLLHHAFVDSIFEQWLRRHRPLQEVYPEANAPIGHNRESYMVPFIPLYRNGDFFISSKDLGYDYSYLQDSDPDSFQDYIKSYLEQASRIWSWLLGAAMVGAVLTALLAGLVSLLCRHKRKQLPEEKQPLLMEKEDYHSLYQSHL
Protocol: The hTYR‐mediated L‐DOPA oxidation assay was performed according to Winder and Harris. MNT‐1 cells were resuspended in 0.05 M sodium phosphate buffer (pH 6.9) and sonicated for 1 min. After incubation on ice for 3–5 min, the mixture underwent a second sonication. The lysate was centrifuged at 13 000 rpm for 15 min at 4°C, and the supernatant was collected and kept on ice.
For the assay, 20 μL of crude enzyme solution and 80 μL sodium phosphate buffer were added to a 96‐well plate and centrifuged at 1000 rpm for 30 s. Subsequently, 2 μL of different concentrations of test compounds were added to each well, followed by centrifugation at 1000 rpm for 30 s. Finally, 100 μL L‐DOPA (final concentration 4 mM) was added to initiate the reaction. The microplate reader (Synergy H1 Hybrid Reader, BioTek) was used to monitor the reaction at 26°C, measuring absorbance at 475 nm every minute for 60 min. IC50 values were calculated using GraphPad software based on Vmax values from the kinetic curves.
The L‐DOPA tyrosinase assay was performed using a tyrosinase enzyme solution derived from MNT‐1 cells in 50 mM sodium phosphate buffer (pH 6.9), with a substrate (L‐DOPA) concentration of 4 mM and various concentrations of inhibitors as indicated. Data represent mean ± standard deviation of three independent experiments.

[2] = system: MNT‐1 cells; assay: Melanin content in MNT‐1 cells after 6 days of treatment; assay type: cell-based, human
Protocol: MNT‐1 cells were exposed to varying concentrations of test compounds for 6 days. After treatment, cells were harvested and lysed in RIPA buffer on ice for 20 min. Lysates were centrifuged at 13 000 rpm for 10 min at 4°C, and the supernatant was collected. Protein concentration was quantified using a BCA Protein Assay Kit (Thermo Fisher). To extract melanin, cell pellets were dissolved in 1 M NaOH and incubated for 3 h at 80°C. Absorbance at 405 nm was measured using a Synergy H1 Hybrid Reader. Melanin content was quantified by referencing a standard curve of synthetic melanin (maximum concentration 50 μg/mL, 2‐fold gradient dilution, 8 concentration points). Melanin content was normalized to protein concentration (μg melanin/mg protein), and IC50 values were calculated using GraphPad software.
FIGURE 3 Inhibition of melanin production in MNT‐1 by KT‐939, Thiamidol, and 4‐butylresorcinol. MNT‐1 cells were treated with different concentrations of KT‐939, Thiamidol, or 4‐butylresorcinol for 6 days. The melanin content was quantified based on the standard curve of melanin, and the melanin content per mg of protein was utilized for IC50 calculations with GraphPad software.

[3] = system: HaCaT cells; assay: Cell viability, HaCaT; assay type: cell-based, human; details: 72 h, up to 50 μM
Protocol: B16‐F10, MNT‐1, and HaCaT cells (5000 cells/well) were seeded into 96‐well plates and incubated overnight. Culture medium (50 μL) containing varying concentrations of KT‐939 was added to each well, and cells were incubated for 72 h. Cell viability was assessed using the Cell Viability Assay Kit (Vazyme Biotech), following the manufacturer's instructions. Luminescence was measured using a Synergy H1 Hybrid Reader. DMSO‐treated cells served as the control, and survival rates were calculated and analyzed with GraphPad software.
B16‐F10, MNT‐1, and HaCaT cells were incubated with different concentrations of KT‐939 for 72 h. Cell viability was assessed and normalized to the DMSO‐treated control group.

IC50 ([1]; MNT‐1 lysate, L‐DOPA 4 mM, pH 6.9, read-out: IC50 against hTYR): 70 nM
inhibition of hTYR ([1]; at concentrations ≥ 0.4 μM): nearly complete inhibition
fold greater hTYR potency than 4‐butylresorcinol ([1]; ratio of IC50, vs 4‐butylresorcinol): ~100 fold
fold greater hTYR potency than 377 ([1]; ratio of IC50, vs 377): over 300 fold
fold greater hTYR potency than Thiamidol ([1]; ratio of IC50, vs Thiamidol): ~ 4 fold
fold greater hTYR potency than resveratrol ([1]; ratio of IC50, vs resveratrol): ~86 fold
IC50 ([2]; Homo sapiens, 144 h, MNT‐1, 6 days, read-out: IC50 of melanin production): 360 nM
Compound: CC1(C(=O)Nc2nc(-c3ccc(O)cc3O)cs2)COC1 [KT‐939, N‐(4‐(2,4‐Dihydroxyphenyl) Thiazol‐2‐yl)‐3‐Methyloxetane‐3‐Carboxamide]
inhibition at 0.37 µM ([2]; Homo sapiens, MNT-1, 144 h, 0.37 μM, 6 days, read-out: inhibition of melanin production): 48.4%
inhibition at 1.1 µM ([2]; Homo sapiens, MNT-1, 144 h, 1.1 μM, 6 days, read-out: inhibition of melanin production): 63.3%
inhibition at 3.3 µM ([2]; Homo sapiens, MNT-1, 144 h, 3.3 μM, 6 days, read-out: inhibition of melanin production): 83.9%
inhibition at 10 µM ([2]; Homo sapiens, MNT-1, 144 h, 10 μM, 6 days, read-out: inhibition of melanin production): 86.7%
fold greater melanin inhibitory potency compared to Thiamidol ([2]; ratio of IC50, vs Thiamidol): approximately 3.6 fold
cytotoxicity (cell viability) [3]: no significant cytotoxicity
